Measurements as given in US8034948B2, “Method for resolving omeprazole salts” (Universite de Rouen, priority 2007, dated 2011).
Structures can show the parent of a compound that is named as a salt. Values belong to the compound of their own block, whether it stands above or below them.

Legend:
[1] = Stability of the potassium salt solvates (ambient atmosphere / alcoholic medium with excess potassium hydroxide); type: physicochemical
[2] = Solubility measurements; type: physicochemical
Method: The solubility measurements are calculated, for a given temperature and for a given excess of potassium hydroxide, in the following way: [formula]

[3] = excess of potassium hydroxide in alcohol/alcohol or alcohol/water solvent mixtures or pure alcohol
[4] = in an ethanol-water mixture in which ethanol predominates, with an excess of potassium hydroxide

- Stability [1, 3]: stable
Structure (SMILES): COc1ccc2nc([S@@+]([O-])Cc3ncc(C)c(OC)c3C)[nH]c2c1 [pure enantiomer (S)-omeprazole, 5-methoxy-2-[(S)-[(4-methoxy-3,5-dimethyl-2-pyridinyl)methyl]sulphinyl]-1H-benzimidazole]

- Stability [1, 4]: stable
Structure (SMILES): COc1ccc2nc([S@@+]([O-])Cc3ncc(C)c(OC)c3C)[nH]c2c1 [(S)-omeprazole, 5-methoxy-2-[(S)-[(4-methoxy-3,5-dimethyl-2-pyridinyl)methyl]sulphinyl]-1H-benzimidazole]

- Stability [1, 4]: stable
Structure (SMILES): COc1ccc2[nH]c([S+]([O-])Cc3ncc(C)c(OC)c3C)nc2c1 (racemic) [ethanol solvates of the potassium salt of racemic omeprazole]

- Solubility ([2]; absolute ethanol, 1.2 molar equivalents of potassium hydroxide, 26 °C): 1.3 % by weight
- Solubility ([2]; absolute ethanol, 1.2 molar equivalents of potassium hydroxide, 30 °C): 1.7 % by weight
- Solubility ([2]; absolute ethanol, 1.2 molar equivalents of potassium hydroxide, 33 °C): 2.2 % by weight
- Solubility ([2]; ethanol/water (90/10% weight/weight), 1.2 molar equivalents of potassium hydroxide, 30 °C): 25 % by weight
- Solubility (coordinates of the point L) ([2]; ethanol/water (93/7% weight/weight), 1.2 molar equivalents of potassium hydroxide, 34.4 °C): 20 % by weight
- Solubility ([2]; ethanol/water azeotropic mixture, 1.2 molar equivalents of potassium hydroxide, 29 °C): 8.7 % by weight
- Solubility ([2]; ethanol/water azeotropic mixture, 1.2 molar equivalents of potassium hydroxide, 31 °C): 9.1 % by weight
- Solubility ([2]; ethanol/water azeotropic mixture, 1.2 molar equivalents of potassium hydroxide, 35 °C): 13.7 % by weight
- Solubility of the salt (in words) ([2]; in ethanol (Example 7)): low
- Stability [1, 3]: stable
Structure (SMILES): COc1ccc2[nH]c([S+]([O-])Cc3ncc(C)c(OC)c3C)nc2c1 (racemic) [racemic mixture]
